Peptide text beside a SMILES is read from it.

Consider 2 compounds from article PMC9218685, “Legume Plant Peptides as Sources of Novel Antimicrobial Molecules Against Human Pathogens” (Frontiers in Molecular Biosciences, 2022).

For series [1], the system named is Human red blood cells. The series can be described thus: Hemolysis assay. The class given is cell-based. Particulars: 1 h at 37°C in TBS pH 7.2, peptides 0.4–100 μM, hemoglobin release OD560, relative to 0.5% Triton X-100 = 100%. As for the experimental part:
Human blood was purchased from the Regional Blood Centre in Szeged. The use of human blood for the hemolysis assay has been authorized by the Regional Hungarian Ethics Committee and approved by the Ethics Review Sector of DG RTD (European Commission) in connection with EK’s ERC AdG SymBiotics. The cells from 10 ml of EDTA-blood were centrifuged at 1,500 × g for 1 min and washed several times in TBS buffer (10 mM Tris, pH = 7.2, 150 mM NaCl) until the supernatant became colorless. The cells were then resuspended in 12 ml TBS buffer and 100 μl of this cell suspension was incubated for 1 h at 37°C in the presence of NCR peptides (0.4–100 μM). The cells were centrifuged at 1,500 g for 1 min and the supernatants were transferred into sterile 96-well plates and the hemoglobin release was measured at OD560 (Hidex Sense Microplate Reader with Plate Reader Software version 5064). […] The hemolytic activity was calculated as % of red blood cell disruption relative to the positive control sample lysed with detergent Triton X-100.
While AMPs can be very effective against microbes, they should not be toxic for human cells. […] Disruption of red blood cells was measured by spectrophotometry and compared to samples lysed with the detergent Triton X-100 (Supplementary Figure S2). […]

In series [2] the test system is E. coli, S. enteritidis, P. aeruginosa, L. monocytogenes, S. aureus, E. faecalis, K. pneumoniae and A. baumannii. The series can be described thus: Antimicrobial activity assay, spectrum over the eight tested pathogenic bacteria. In kind it is cell-based. Particulars: 3 h treatment of ~10^7 log phase bacteria, peptides 25 to 0.8 µM; active = MBC ≤25 µM. In outline:
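MBC taken as the lowest peptide concentration leaving no viable bacteria after 3 h exposure of ~10^7 log-phase cells. Peptides tested by 2-fold serial dilution, 25 µM down to 0.8 µM, in PPB (pH 7.4). Gram-positive and Gram-negative reference strains from ATCC, NCTC and HNCMO collections.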

For series [3] the following is noted: quoted in the Introduction; ref Kim et al., 2015; cited from earlier work. The source says:
In the Inverted Repeat Lacking Clade (IRLC) of legumes, in addition to defensins, a related family of peptides has evolved that encodes nodule specific, cysteine-rich NCR peptides that play essential roles in symbiosis ([Mergaert et al., 2003]; [Nallu et al., 2013]; [Montiel et al., 2017]). Legume plants in symbiosis with their rhizobium bacterium partner form nitrogen-fixing root nodules. The primary role of the NCR peptides is to convert bacteria into large polyploid, non-cultivable nitrogen-fixing bacteroids in the nodule cells ([Van de Velde et al., 2010]). This is a terminal differentiati ... || IRLC includes 56 genera and more than 4,000 species ([Duan et al., 2021]), and presumably all species have NCRs as it was confirmed in a few selected species. The genus Astragalus, with 2,300–2,500 members, has the highest number of species among angiosperms ([Duan et al., 2021]). In A. canadensis 108 NCRs have been identified ([Montiel et al., 2017]), while in the members of the Vicioid subclade 200–700 NCRs ([Ištvánek et al., 2014]; [Montiel et al., 2017]), thus, it is reasonable to assume that IRLC species in total express hundreds of thousand different NCRs, providing almost unlimited amou ...

Take `CC[C@H](C)[C@H](NC(=O)CNC(=O)[C@@H](NC(=O)[C@H](CCCNC(=N)N)NC(=O)[C@@H]1CCCN1C(=O)[C@H](CS)NC(=O)[C@H](CC(=O)O)NC(=O)[C@H](CCCCN)NC(=O)[C@H](CC(=O)O)NC(=O)[C@H](CCCCN)NC(=O)[C@@H](NC(=O)[C@H](CS)NC(=O)[C@H](CO)NC(=O)[C@H](Cc1c[nH]cn1)NC(=O)[C@H](CC(N)=O)NC(=O)[C@H](CCCNC(=N)N)NC(=O)[C@H](CC(C)C)NC(=O)[C@H](CC(N)=O)NC(=O)[C@@H](NC(=O)[C@@H](N)CO)[C@@H](C)CC)[C@@H](C)CC)C(C)C)C(=O)N[C@@H](CC(C)C)C(=O)N[C@@H](CC(N)=O)C(=O)N[C@H](C(=O)N[C@@H](CCCNC(=N)N)C(=O)N[C@@H](CS)C(=O)N[C@@H](CCCNC(=N)N)C(=O)N[C@@H](CCCCN)C(=O)NCC(=O)N[C@@H](Cc1ccccc1)C(=O)N[C@@H](CS)C(=O)N[C@H](C(=O)N[C@@H](Cc1c[nH]cn1)C(=O)N[C@H](C(=O)N[C@@H](CO)C(=O)O)[C@@H](C)CC)C(C)C)[C@@H](C)CC` [MsNCR465] (H-SINLRNHSCIKDKDCPRVGILNIRCRKGFCVHIS-OH; N-terminus assumed): the “Hemolytic activity on human red blood cells” value in series [1] was “mild hemolysis at 50 and 100 μM”.

Regarding “DRECDTDTECQKKFPGVNAHHLWCDNGNCVSYPK [NCR211, anionic M. truncatula NCR peptide]”, the “Antibacterial spectrum over the eight tested bacterial strains” value in series [2] was “inactive”. For the same compound, the net charge in series [3] is recorded as −2.1.
